Columns and labels:
SNU-16 = assay: Cell SNU-16 assay; type: cell-based; details: Homo sapiens, SNU-16, SNU-16 cells
FGFR2 = FGFR2 (Homo sapiens (Human), UniProt P21802); assay: Biochemical FGFR2 Caliper assay
Sequence of FGFR2 (P21802 22-821): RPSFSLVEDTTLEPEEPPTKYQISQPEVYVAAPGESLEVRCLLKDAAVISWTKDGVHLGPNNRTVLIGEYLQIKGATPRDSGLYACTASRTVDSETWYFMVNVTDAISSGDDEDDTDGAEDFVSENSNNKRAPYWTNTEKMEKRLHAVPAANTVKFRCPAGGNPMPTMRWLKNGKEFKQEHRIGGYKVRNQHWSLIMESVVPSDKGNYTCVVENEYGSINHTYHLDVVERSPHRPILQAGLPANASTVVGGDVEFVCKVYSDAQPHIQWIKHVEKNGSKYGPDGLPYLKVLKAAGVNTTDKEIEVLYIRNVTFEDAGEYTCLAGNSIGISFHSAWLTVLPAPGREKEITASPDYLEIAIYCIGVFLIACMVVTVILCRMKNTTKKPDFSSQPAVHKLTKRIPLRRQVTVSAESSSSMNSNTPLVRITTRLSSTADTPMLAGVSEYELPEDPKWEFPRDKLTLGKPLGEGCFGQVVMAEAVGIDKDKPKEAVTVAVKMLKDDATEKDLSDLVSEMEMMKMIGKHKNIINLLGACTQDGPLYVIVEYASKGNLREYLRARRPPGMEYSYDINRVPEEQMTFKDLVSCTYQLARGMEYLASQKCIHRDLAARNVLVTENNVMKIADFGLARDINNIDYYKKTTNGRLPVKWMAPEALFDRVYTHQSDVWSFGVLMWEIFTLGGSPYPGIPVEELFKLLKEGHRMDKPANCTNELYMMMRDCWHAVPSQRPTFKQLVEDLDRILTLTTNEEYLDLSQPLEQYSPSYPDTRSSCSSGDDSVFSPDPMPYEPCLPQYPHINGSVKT

| IC50 (SNU-16) | IC50 (FGFR2) | SMILES |
| --- | --- | --- |
| ≤ 100 nM | < 100 nM | C#Cc1cc(C)c(-c2c(-c3ccc(Oc4nccc(C)n4)c(F)c3)c3c(N)ncnc3n2C(C)C)cn1 [Example 1213] |
| ≤ 100 nM | < 100 nM | C#Cc1ccc(-c2c(-c3ccc(Oc4nccc(C)n4)c(F)c3)c3c(N)ncnc3n2C(C)C)c(C)n1 [Example 1214] |
| ≤ 100 nM | < 100 nM | C#Cc1cc(C)c(-c2c(-c3ccc(Oc4nccc(C)n4)c(F)c3)c3c(N)ncnc3n2C)c(C)n1 [Example 1215] |
| ≤ 100 nM | < 100 nM | C#Cc1cc(CC)c(-c2c(-c3ccc(Oc4nccc(C)n4)c(F)c3)c3c(N)ncnc3n2C)cn1 [Example 1217] |
| ≤ 100 nM | < 100 nM | C#Cc1cc(CO)c(-c2c(-c3ccc(Oc4nccc(C)n4)c(F)c3)c3c(N)ncnc3n2C)cn1 [Example 1228] |
| ≤ 100 nM | < 100 nM | COCC#Cc1ncc(-c2c(-c3ccc(Oc4nccc(C)n4)cc3)c3c(N)ncnc3n2C)c(C)n1 [Example 1232] |
| ≤ 100 nM | < 100 nM | C#Cc1ncc(-c2c(-c3ccc(Oc4nccc(C)n4)c(F)c3)c3c(N)ncnc3n2C)c2ccccc12 [Example 1233] |
| ≤ 100 nM | < 100 nM | C#Cc1cc(C)c(-c2c(-c3ccc(Oc4ncccn4)c(F)c3)c3c(N)ncnc3n2C)cn1 [Example 1234] |
| 1000 to 100000 nM | 1000 to 100000 nM | C#Cc1cc(-c2c(-c3ccc(Oc4nccc(C)n4)cc3)c3c(N)ncnc3n2C)n(C)n1 [Example 1236] |
| ≤ 100 nM | 250 to 1000 nM | C#Cc1cc(-c2c(-c3ccc(Oc4nccc(C)n4)c(F)c3)c3c(N)ncnc3n2C)ccn1 [Example 1237] |
| 1000 to 100000 nM | 100 to 250 nM | C=C1CCc2ccc(-c3c(-c4ccc(Oc5nccc(C)n5)cc4)c4c(N)ncnc4n3C)cc2C1=O [Example 1242] |
| ≤ 100 nM | < 100 nM | C#Cc1ccc(-c2c(-c3ccc(Oc4nccc(C)n4)c(F)c3)c3c(N)ncnc3n2C)c(CC)n1 [Example 1243] |
| ≤ 100 nM | < 100 nM | C#Cc1cc(C)c(-c2c(-c3ccc(Oc4nccc(C)n4)c(F)c3)c3c(N)ncnc3n2CCO)cn1 [Example 1245] |
| ≤ 100 nM | < 100 nM | C#Cc1cc(C)c(-c2c(-c3ccc(Oc4ccn(C)n4)c(F)c3)c3c(N)ncnc3n2C)cn1 [Example 1246] |
| 100 to 250 nM | 250 to 1000 nM | C#Cc1cc(C)c(-c2c(C3=CC[C@H](C(=O)N4CCC[C@H]4C)CC3)c3c(N)ncnc3n2C)cn1 [Example 1249] |
| ≤ 100 nM | < 100 nM | C#Cc1cc(Cl)c(-c2c(-c3ccc(Oc4nccc(C)n4)c(F)c3)c3c(N)ncnc3n2C)cn1 [Example 1250] |
| ≤ 100 nM | < 100 nM | C#Cc1cc(C)c(-c2c(C3=CC[C@H](C(=O)N4CCC[C@H]4C#N)CC3)c3c(N)ncnc3n2C)cn1 [Example 1251] |
| ≤ 100 nM | < 100 nM | C#Cc1cc(C)c(-c2c(C3=CC[C@@H](C(=O)N4CCC[C@H]4C#N)CC3)c3c(N)ncnc3n2C)cn1 [Example 1252] |
| ≤ 100 nM | < 100 nM | C#Cc1cc(C(F)F)c(-c2c(-c3ccc(Oc4nccc(C)n4)c(F)c3)c3c(N)ncnc3n2C)cn1 [Example 1253] |
| ≤ 100 nM | < 100 nM | C#Cc1ncc(-c2c(-c3ccc(Oc4nccc(C)n4)c(F)c3)c3c(C)ncnc3n2C)c(C)c1F [Example 1255] |
| 250 to 1000 nM | 250 to 1000 nM | C#Cc1cc(C)c(-c2c(C3=CC[C@H](C(=O)N4CCC[C@@H]4C)CC3)c3c(N)ncnc3n2C)cn1 [Example 1257] |
| ≤ 100 nM | < 100 nM | C#Cc1ncc(-c2c(-c3ccc(C(=O)NCC(F)(F)F)c(OC)c3)c3c(N)ncnc3n2C)c(C)c1F [Example 1260] |
| ≤ 100 nM | < 100 nM | C#Cc1ncc(-c2c(-c3ccc(C(=O)NCC(C)C)c(F)c3)c3c(N)ncnc3n2C)c(C)c1F [Example 1261] |
| ≤ 100 nM | < 100 nM | C#Cc1cc(C)c(-c2c(-c3ccc(Oc4nccc(C)n4)c(C#N)c3)c3c(N)ncnc3n2C)cn1 [Example 1262] |

— patent publication US11780845B2 (Relay Therapeutics, Inc., priority 2019, dated 2023)
